In article PMC2228596 (The Journal of General Physiology, 1980):
Read-outs that look alike come from different tables or passages of the source.

Columns and labels:
[1] = tested on: Na+ channels in synaptosomes; conditions: cited from earlier work; for Synaptosome depolarization: ref VER: Goldring and Blaustein, BTX: Krueger and Blaustein, 1978
[2] = tested on: Na+ channels in rat brain synaptosomes; assay: Synaptosome membrane potential; type: cell-based
[3] = tested on: voltage-dependent Na+ channels in excitable membranes; conditions: cited from earlier work; for Effect on kinetics of activation and inactivation of Na+ channels: electrophysiology, Khodorov et al.; for Effect on kinetics of activation and inactivation of Na+ channels / Use dependence of activator effects: ref Ulbricht, 1969; for Use dependence of activator effects: intact nerve preparations, Albuquerque et al., Bartels-Bernal et al., 1977, Revenko; for Opening of Na+ channels: Catterall
[4] = tested on: Na+ channels in rat brain synaptosomes; type: cell-based
[5] = tested on: Na+ channels, neuroblastoma cells; conditions: ref Catterall (1977 b); cited from earlier work
[6] = ref Albuquerque et al., 1973, 1975
[7] = ref Narahashi and Seyama, 1974, 1977 b

## batrachotoxin [BTX]
[1]; 1975
  Synaptosome depolarization: induced synaptosome depolarization
[2]; 30 μM BTX, 140 Ch + 5 Na + 5 K, data not shown
  Fluorescence increase in low-Na medium: same amount as did increasing the external K concentration from 5 to 8 mM
[2]; data not shown
  Time to complete depolarizing effect: up to 5 min
[2]; maximally effective concentration of BTX, no LqTX
  Maximal depolarization, ΔF (% of 150 mM K+): 100%
[3]; 1975
  Effect on kinetics of activation and inactivation of Na+ channels: alter the kinetic properties of the rapid, voltage-sensitive activation and inactivation of Na + channels
[3]; 1973
  Use dependence of activator effects: use dependent
[3]; [6]
  Opening of Na+ channels: open TTX-sensitive Na + channels
[4]; 0.1 μM LqTX
  Effect of BTX >0.3 μM in presence of LqTX: slightly inhibitory
[4]; 10 μM BTX
  BTX-stimulated 22Na influx during the second s of incubation: slightly less than that during the first s
[4]; 10 μM BTX, 2 s uptake, 2.5-30 mM Na+
  Na+ concentration up to which BTX-stimulated uptake is proportional to Na+: up to 5 mM
[4]; 10 μM BTX, 5 min at 30°C, 5 mM Na+
  Na+ uptake rate: ~ 1 nmol s-1 mg-1
[4]; each of three experiments
  Maximal Na+ uptake by BTX without vs with LqTX: slightly greater in the absence than in the presence of LqTX
[4]; presence of 10 μM BTX, 30°C
  Time to isotopic equilibrium: about 5 s

## anthopleurin-A [AxTX]
[4]; 1 μM AxTX
  Potentiation of BTX by AxTX: potentiated the effects of BTX without itself greatly increasing Na + uptake
  Potentiation of VER by AxTX: potentiated the effects of VER
[4]; absence of VER or BTX
  Effect of AxTX alone on Na+ uptake: small increase in Na + uptake

## COc1ccc(C(=O)O[C@H]2CC[C@@]3(C)[C@@H]4CC[C@H]5[C@]6(O)C[C@H](O)[C@@]7(O)[C@@H](CN8C[C@@H](C)CC[C@H]8[C@@]7(C)O)[C@]6(O)C[C@@]53O[C@]24O)cc1OC [VER, veratridine]
[1]; ref Blaustein, 1975, Cotman et al., 1976
  Release of neurotransmitters from synaptosomes: VER-stimu- lated release of neurotransmitters
[1]; ref Blaustein, 1975, Nachshen and Blaustein, 1979
  Ca2+ uptake into synaptosomes: VER-stimulated Ca2+ uptake
[1]; ref Li and White (1977), Matthews et al. (1979)
  Uptake of Na+ into synaptosomes: VER-stimulated, TTX-sensitive uptake of Na + into synaptosomes
[1]; 1975
  Synaptosome depolarization: induced synaptosome depolarization
[5]
  Preference of binding to open over nonopen states: ~ 600 times
[2]; data not shown
  Time to complete depolarizing effect: up to 5 min
[2]; highest concentration tested, 300 μM VER, no LqTX
  Depolarization relative to maximally effective BTX or 150 mM K+ (ΔF = 100%): 50-60%
[3]; 1975
  Effect on kinetics of activation and inactivation of Na+ channels: alter the kinetic properties of the rapid, voltage-sensitive activation and inactivation of Na + channels
[3]; 1973
  Use dependence of activator effects: use dependent
[3]; [6]
  Opening of Na+ channels: open TTX-sensitive Na + channels
[4]; 0.1 μM LqTX
  Maximal effect of VER on Na+ uptake with LqTX: increased in the presence of LqTX to the same level observed in the presence of 10 ~M BTX
[4]; 1 μM AxTX
  Na+ uptake at maximally effective VER with AxTX: increased in the presence of AxTX

## Grayanotoxin
[3]; [7]
  Opening of Na+ channels: open Na + channels

## COC(=O)[C@@H]1[C@H]2C[C@H]3c4[nH]c5ccccc5c4CCN3C[C@@H]2CC[C@@H]1O [yohimbine]
[3]; ref Huang et al., 1978
  Antagonism of Na+ channel openers: competitive antagonist of these agents

## CCN1C[C@]2(COC)[C@H](O)C[C@H](OC)[C@@]34[C@@H]5C[C@@]6(O)[C@H](OC(=O)c7ccccc7)[C@@H]5[C@@](OC(C)=O)([C@@H]([C@H](OC)[C@H]23)[C@@H]14)[C@@H](O)[C@@H]6OC [aconitine]
[3]; [7]
  Opening of Na+ channels: open Na + channels
